From the NIST ThermoML archive (doi:10.1016/j.jct.2018.06.015)

Assay: xn = mol fraction of the nth substance listed
Details: 100 kPa, Liquid; for mass density: Vibrating tube method; for speed of sound: Frequency=3 MHz, Single path-length method

CCCCOCCOCCO [3,6-dioxa-1-decanol] + CCCCCCCCCCO
Details | mass density, 303.15 K [kg/m3] | mass density, 308.15 K [kg/m3] | mass density, 313.15 K [kg/m3] | speed of sound, 308.15 K [m/s] | speed of sound, 313.15 K [m/s]
x1 = 0.0523 | 828.507 | 825.069 | 821.625 | 1343.3 | 1326.4
x1 = 0.102 | 833.786 | 830.318 | 826.838 | 1340.8 | 1324
x1 = 0.1579 | 839.841 | 836.332 | 832.81 | 1338.3 | 1321.7
x1 = 0.207 | 845.172 | 841.631 | 838.082 | 1336 | 1319.7
x1 = 0.2513 | 850.057 | 846.484 | 842.906 | 1334.1 | 1318
x1 = 0.3099 | 856.695 | 853.085 | 849.466 | 1331.8 | 1315.9
x1 = 0.4046 | 867.688 | 864.011 | 860.317 | 1328.8 | 1312.8
x1 = 0.5087 | 880.111 | 876.354 | 872.591 | 1326 | 1310.2
x1 = 0.6073 | 892.242 | 888.409 | 884.574 | 1324.7 | 1308.1
x1 = 0.7051 | 904.568 | 900.658 | 896.746 | 1323.9 | 1307.1
x1 = 0.7952 | 916.202 | 912.22 | 908.239 | 1323.9 | 1306.6
x1 = 0.8515 | 923.651 | 919.614 | 915.585 | 1324.6 | 1306.5
x1 = 0.9006 | 930.252 | 926.171 | 922.107 | 1325.4 | 1307.4
x1 = 0.9379 | 935.294 | 931.189 | 927.082 | 1326.3 | 1307.7
x1 = 1 | 943.909 | 939.704 | 935.503 | 1326.4 | 1307.7
